Experimental data: the kinase profiling compilation of Christmann-Franck et al. (2016)

How the values were obtained:
Test in all cases: KINOMEscan competition binding
Conditions in all cases: compound 1.0 µM
[1] = target: MAPK14 (human) (UniProt Q16539)
[2] = target: CSNK1G2 (human) (UniProt P78368)
[3] = target: STK35 (human) (UniProt Q8TDR2)
[4] = target: MYLK2 (human) (UniProt Q9H1R3)
[5] = target: PIK3CG (human) (UniProt P48736)
[6] = target: CAMK1D (human) (UniProt Q8IU85)
[7] = target: CAMK2B (human) (UniProt Q13554)
[8] = target: CDK19 (human) (UniProt Q9BWU1)
[9] = target: TAOK1 (human) (UniProt Q7L7X3)
[10] = target: STK25 (human) (UniProt O00506)
[11] = target: RPS6KA3 KD2 (human) (UniProt P51812)
[12] = target: PRKD1 (human) (UniProt Q15139)
Sequence of PRKD1 (human) (Q15139 whole entry, looked up): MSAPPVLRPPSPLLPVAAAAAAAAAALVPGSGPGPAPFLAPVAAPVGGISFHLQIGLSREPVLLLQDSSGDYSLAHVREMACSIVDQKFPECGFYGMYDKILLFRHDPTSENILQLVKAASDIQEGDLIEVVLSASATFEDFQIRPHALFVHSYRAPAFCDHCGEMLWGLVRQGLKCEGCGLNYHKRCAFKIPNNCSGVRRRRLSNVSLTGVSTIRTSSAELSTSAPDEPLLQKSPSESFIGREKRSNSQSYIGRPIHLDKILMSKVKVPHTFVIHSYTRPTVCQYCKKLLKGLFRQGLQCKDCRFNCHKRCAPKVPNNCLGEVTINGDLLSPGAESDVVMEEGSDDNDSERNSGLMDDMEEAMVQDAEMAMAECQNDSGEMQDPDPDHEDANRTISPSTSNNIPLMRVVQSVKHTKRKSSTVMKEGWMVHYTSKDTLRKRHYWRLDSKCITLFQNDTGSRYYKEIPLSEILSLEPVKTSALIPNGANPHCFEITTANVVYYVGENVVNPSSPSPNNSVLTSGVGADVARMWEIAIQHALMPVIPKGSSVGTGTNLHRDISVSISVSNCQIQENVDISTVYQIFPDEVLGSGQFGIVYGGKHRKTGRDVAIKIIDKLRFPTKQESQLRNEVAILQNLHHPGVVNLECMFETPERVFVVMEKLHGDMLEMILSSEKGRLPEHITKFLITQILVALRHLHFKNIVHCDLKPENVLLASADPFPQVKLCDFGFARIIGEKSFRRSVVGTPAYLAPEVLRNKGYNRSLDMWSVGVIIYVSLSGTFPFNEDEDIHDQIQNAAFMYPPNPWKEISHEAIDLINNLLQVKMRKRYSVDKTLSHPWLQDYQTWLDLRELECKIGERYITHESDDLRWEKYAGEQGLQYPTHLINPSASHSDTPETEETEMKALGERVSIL

[13] = target: CSNK1A1L (human) (UniProt Q8N752)
[14] = target: NTRK1 (human) (UniProt P04629)
[15] = target: CDKL3 (human) (UniProt Q8IVW4)
[16] = target: SRC (human) (UniProt P12931)
[17] = tested on: FLT3 (human), P36888 [N841I]
[18] = target: NEK1 (human) (UniProt Q96PY6)
[19] = target: PTK6 (human) (UniProt Q13882)
[20] = target: BMX (human) (UniProt P51813)
[21] = target: RIPK2 (human) (UniProt O43353)
[22] = target: EPHB6 (human) (UniProt O15197)
[23] = target: MAP2K1 (human) (UniProt Q02750)
[24] = target: DYRK1A (human) (UniProt Q13627)
[25] = target: EPHA4 (human) (UniProt P54764)
[26] = target: CSNK1A1 (human) (UniProt P48729)
[27] = target: STK4 (human) (UniProt Q13043)
[28] = target: KDR (human) (UniProt P35968)
[29] = target: RPS6KB1 (human) (UniProt P23443)
[30] = target: GRK1 (human) (UniProt Q15835)
[31] = target: CAMK1G (human) (UniProt Q96NX5)
[32] = target: MELK (human) (UniProt Q14680)
Sequence of MELK (human) (Q14680 whole entry, looked up): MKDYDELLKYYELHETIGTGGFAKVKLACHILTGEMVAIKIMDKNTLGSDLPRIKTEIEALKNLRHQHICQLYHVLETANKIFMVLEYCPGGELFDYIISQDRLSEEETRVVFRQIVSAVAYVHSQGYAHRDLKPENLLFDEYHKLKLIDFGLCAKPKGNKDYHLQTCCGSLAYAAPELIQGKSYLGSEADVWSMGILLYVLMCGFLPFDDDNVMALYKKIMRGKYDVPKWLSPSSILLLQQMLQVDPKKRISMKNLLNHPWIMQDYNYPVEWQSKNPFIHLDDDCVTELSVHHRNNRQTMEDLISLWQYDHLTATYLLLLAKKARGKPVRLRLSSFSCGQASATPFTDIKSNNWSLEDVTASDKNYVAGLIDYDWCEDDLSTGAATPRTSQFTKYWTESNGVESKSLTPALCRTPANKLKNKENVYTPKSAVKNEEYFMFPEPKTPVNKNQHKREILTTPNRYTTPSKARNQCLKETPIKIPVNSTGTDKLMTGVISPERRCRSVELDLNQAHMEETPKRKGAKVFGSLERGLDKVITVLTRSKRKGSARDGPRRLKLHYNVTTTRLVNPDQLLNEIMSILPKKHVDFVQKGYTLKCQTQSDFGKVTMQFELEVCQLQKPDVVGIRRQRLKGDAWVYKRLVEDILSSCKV

[33] = target: MAP4K1 (human) (UniProt Q92918)
Sequence of MAP4K1 (human) (Q92918 whole entry, looked up): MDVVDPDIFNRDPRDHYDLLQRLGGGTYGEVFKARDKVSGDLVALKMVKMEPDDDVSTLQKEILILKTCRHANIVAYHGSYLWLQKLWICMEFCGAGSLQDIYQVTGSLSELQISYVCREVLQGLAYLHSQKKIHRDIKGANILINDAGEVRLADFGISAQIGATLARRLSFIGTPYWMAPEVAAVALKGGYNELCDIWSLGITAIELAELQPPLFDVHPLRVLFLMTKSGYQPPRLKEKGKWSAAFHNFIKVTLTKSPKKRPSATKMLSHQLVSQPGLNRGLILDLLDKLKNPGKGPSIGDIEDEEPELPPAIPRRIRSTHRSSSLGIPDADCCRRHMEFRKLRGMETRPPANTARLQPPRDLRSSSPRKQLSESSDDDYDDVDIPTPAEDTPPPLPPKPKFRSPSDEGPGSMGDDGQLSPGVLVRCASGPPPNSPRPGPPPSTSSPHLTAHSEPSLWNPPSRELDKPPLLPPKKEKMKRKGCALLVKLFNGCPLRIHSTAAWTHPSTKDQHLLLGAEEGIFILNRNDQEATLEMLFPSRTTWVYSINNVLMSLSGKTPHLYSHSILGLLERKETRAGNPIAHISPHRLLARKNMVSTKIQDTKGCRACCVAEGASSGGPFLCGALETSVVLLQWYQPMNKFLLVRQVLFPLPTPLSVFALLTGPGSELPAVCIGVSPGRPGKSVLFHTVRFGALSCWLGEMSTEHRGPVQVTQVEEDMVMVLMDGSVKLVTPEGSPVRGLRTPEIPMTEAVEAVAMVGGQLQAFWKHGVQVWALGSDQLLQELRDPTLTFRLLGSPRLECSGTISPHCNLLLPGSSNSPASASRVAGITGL

[34] = target: STK10 (human) (UniProt O94804)
[35] = target: SYK (human) (UniProt P43405)
[36] = target: CDK18 (human) (UniProt Q07002)
[37] = target: PDPK1 (human) (UniProt O15530)
[38] = target: STK32B (human) (UniProt Q9NY57)
[39] = target: BMP2K (human) (UniProt Q9NSY1)
Sequence of BMP2K (human) (Q9NSY1 whole entry, looked up): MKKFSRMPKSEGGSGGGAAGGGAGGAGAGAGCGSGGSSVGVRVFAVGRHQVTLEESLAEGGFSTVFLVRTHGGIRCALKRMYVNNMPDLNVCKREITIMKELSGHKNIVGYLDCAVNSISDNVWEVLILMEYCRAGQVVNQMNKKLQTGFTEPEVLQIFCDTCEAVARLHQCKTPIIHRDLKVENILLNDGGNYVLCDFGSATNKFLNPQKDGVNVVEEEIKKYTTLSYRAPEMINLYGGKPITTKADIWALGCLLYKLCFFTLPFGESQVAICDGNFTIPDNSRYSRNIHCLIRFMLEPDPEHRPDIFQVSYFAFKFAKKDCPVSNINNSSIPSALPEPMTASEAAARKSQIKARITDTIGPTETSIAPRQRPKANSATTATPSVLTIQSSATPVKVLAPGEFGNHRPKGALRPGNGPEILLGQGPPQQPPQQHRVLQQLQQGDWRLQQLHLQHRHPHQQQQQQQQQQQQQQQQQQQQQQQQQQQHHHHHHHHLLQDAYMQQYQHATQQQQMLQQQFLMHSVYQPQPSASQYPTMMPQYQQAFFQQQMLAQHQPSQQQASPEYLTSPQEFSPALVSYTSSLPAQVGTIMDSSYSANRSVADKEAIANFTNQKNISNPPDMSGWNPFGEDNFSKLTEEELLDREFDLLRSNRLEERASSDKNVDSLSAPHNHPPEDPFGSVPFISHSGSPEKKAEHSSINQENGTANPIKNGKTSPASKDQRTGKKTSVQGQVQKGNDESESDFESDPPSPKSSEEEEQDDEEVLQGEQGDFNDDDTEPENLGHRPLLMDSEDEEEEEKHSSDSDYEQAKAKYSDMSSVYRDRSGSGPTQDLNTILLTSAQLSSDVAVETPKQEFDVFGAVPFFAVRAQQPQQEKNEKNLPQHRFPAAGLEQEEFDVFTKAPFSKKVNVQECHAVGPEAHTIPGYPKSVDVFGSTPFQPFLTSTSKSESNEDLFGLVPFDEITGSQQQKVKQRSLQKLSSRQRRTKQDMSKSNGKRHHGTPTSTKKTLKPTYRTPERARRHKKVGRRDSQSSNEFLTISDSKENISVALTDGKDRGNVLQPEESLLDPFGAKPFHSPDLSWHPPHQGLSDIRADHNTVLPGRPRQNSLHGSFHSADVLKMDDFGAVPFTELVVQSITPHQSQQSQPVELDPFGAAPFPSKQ

Sequence of MYLK2 (human) (Q9H1R3 whole entry, looked up): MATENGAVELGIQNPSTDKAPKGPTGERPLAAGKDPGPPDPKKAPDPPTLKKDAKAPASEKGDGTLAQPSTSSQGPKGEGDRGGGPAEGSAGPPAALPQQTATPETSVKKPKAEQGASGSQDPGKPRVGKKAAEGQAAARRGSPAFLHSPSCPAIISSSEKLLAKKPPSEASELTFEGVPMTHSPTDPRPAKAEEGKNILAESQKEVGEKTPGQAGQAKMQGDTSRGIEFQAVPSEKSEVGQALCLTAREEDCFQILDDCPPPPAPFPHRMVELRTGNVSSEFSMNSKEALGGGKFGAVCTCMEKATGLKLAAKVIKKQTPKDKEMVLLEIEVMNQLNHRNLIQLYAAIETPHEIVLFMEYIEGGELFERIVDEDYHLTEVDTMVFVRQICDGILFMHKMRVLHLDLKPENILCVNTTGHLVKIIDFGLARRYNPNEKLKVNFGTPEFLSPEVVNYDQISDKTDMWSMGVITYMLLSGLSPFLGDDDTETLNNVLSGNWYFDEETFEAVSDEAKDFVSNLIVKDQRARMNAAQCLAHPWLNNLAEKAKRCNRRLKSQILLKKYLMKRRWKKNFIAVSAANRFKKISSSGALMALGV
Sequence of CAMK1D (human) (Q8IU85 whole entry, looked up): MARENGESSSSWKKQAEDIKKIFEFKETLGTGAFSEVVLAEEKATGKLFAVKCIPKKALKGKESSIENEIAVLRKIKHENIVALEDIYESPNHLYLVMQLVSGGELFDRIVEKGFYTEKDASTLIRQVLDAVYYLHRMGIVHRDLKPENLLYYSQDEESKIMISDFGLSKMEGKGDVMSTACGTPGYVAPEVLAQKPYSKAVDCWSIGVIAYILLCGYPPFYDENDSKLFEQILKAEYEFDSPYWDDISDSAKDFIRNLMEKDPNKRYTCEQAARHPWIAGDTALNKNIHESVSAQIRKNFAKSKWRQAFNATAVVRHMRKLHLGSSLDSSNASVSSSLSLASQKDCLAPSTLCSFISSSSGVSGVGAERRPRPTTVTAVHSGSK
Sequence of MAPK14 (human) (Q16539 whole entry, looked up): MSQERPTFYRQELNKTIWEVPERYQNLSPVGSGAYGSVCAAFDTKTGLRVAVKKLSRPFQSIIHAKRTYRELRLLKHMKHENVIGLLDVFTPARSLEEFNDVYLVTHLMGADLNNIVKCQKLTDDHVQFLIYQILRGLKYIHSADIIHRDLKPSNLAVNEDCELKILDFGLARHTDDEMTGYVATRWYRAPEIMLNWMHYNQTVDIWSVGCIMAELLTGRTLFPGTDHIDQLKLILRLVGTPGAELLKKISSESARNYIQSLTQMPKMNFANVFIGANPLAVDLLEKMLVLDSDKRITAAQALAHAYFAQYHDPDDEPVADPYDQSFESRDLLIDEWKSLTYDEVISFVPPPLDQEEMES

CNc1nc(Nc2ccc(C(=O)N3CCOCC3)cc2OC)ncc1Cl
kinase still bound, per cent of control [1]: 100% | kinase still bound, per cent of control [2]: 100% | kinase still bound, per cent of control [3]: 100% | kinase still bound, per cent of control [4]: 100% | kinase still bound, per cent of control [5]: 78% | kinase still bound, per cent of control [6]: 100% | kinase still bound, per cent of control [7]: 89% | residual activity [8]: 100% | kinase still bound, per cent of control [9]: 99% | kinase still bound, per cent of control [10]: 100% | kinase still bound, per cent of control [11]: 95% | kinase still bound, per cent of control [12]: 83% | kinase still bound, per cent of control [13]: 94% | kinase still bound, per cent of control [14]: 99% | residual activity [15]: 100% | kinase still bound, per cent of control [16]: 100% | kinase still bound, per cent of control [17]: 73% | kinase still bound, per cent of control [18]: 91% | kinase still bound, per cent of control [19]: 47% | kinase still bound, per cent of control [20]: 100% | kinase still bound, per cent of control [21]: 54% | kinase still bound, per cent of control [22]: 100% | kinase still bound, per cent of control [23]: 89% | kinase still bound, per cent of control [24]: 100% | kinase still bound, per cent of control [25]: 100% | kinase still bound, per cent of control [26]: 100% | kinase still bound, per cent of control [27]: 100% | kinase still bound, per cent of control [28]: 87% | kinase still bound, per cent of control [29]: 85% | kinase still bound, per cent of control [30]: 100% | kinase still bound, per cent of control [31]: 96% | kinase still bound, per cent of control [32]: 100% | kinase still bound, per cent of control [33]: 100% | kinase still bound, per cent of control [34]: 100% | kinase still bound, per cent of control [35]: 100% | residual activity [36]: 98% | kinase still bound, per cent of control [37]: 95% | kinase still bound, per cent of control [38]: 99% | kinase still bound, per cent of control [39]: 79%
